This note sets out measurements from patent publication US20120178738A1, “DIBENZO [B,F] [1,4]OXAZAPINE COMPOUNDS” (ARYX THERAPEUTICS, INC., priority 2007, published 2012).

pKi: −log10 of the molar value.

Series [1] relates to locomotor activity in rats. Put plainly: Spontaneous locomotor activity (open field). It is filed as in vivo. The procedure: One of the common side effects of many antipsychotic drugs is sedation. It has been shown that agents that have sedative actions in man have the same effect in animals. The purpose of these studies was to evaluate the effect of test compounds on the locomotor activity in rats, which is used to assess the sedative properties of antipsychotic compounds.
The animals (male Sprague Dawley rats, about 300-450 g; Charles River) were assessed for ambulation for 30 minutes before and for 30 min after vehicle or test compounds. […] Locomotor activity is quantified by the number of photobeams crossed by the animal over several 3×10 min intervals.

Another series has as its target T1, human 5HT2C receptors (Homo sapiens, UniProt P28335).
T1 construct: expressed in transfected cells; host or cells: human embryo kidney cells (membranes)
T1 sequence (P28335 33-458): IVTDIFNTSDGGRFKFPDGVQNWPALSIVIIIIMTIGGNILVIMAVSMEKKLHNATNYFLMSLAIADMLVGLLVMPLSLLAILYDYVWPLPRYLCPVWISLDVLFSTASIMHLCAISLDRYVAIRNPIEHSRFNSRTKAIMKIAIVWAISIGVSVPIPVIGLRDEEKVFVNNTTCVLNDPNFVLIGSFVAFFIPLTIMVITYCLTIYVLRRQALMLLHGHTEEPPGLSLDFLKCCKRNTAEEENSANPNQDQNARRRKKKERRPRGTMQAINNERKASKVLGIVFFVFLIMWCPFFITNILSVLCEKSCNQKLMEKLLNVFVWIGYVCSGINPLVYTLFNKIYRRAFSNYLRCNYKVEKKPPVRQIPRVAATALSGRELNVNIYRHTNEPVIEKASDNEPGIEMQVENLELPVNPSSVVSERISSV
Briefly: h5-HT2C receptor radioligand binding ([3H]Mesulergine). As to conditions: for binding to 5-HT2c: in words; for pKi: pKi reported on a scale of 1 through 5. The essentials: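 Test compound affinity was derived from concentration-dependent displacement of fixed [3H]mesulergine at equilibrium, after subtracting nonspecific binding measured with a reference blocker. Bound and free radioligand were separated by filtration of tissue or plasma-membrane preparations.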

Another series addresses T2, human M3 receptors (Homo sapiens, UniProt P20309).
T2 construct: expressed in transfected cells; host or cells: Chinese hamster ovary cells (membranes)
Put plainly: hM3 receptor radioligand binding ([3H]NMS). The note with it: for affinity to M3 receptors: in words; for Ki: pKi reported on a scale of 1 through 5, read-out: M3 (pKi) (converted). The essentials:
(§1)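 Test compounds at varying concentrations displaced a single concentration of radioligand from tissues or membrane fractions expressing each receptor, incubated to equilibrium, then filtered. Specific binding was taken as total minus binding in the presence of a reference blocker, and the corrected concentration–response gave receptor binding.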

The next series concerns the target T3, human 5HT7 receptors (Homo sapiens, UniProt P34969).
T3 construct: expressed in transfected cells; host or cells: Chinese hamster ovary cells (membranes)
Briefly: h5-HT7 receptor radioligand binding ([3H]5-CT). As to conditions: pKi reported on a scale of 1 through 5; read-out: 5HT7 (pKi) (converted). The essentials:
as §1

Series [2] has as its system NMDA antagonist-induced deficits in prepulse inhibition in rats. Put plainly: Prepulse inhibition (PPI), NMDA antagonist (PCP)-induced deficit. The note with it: ip 45 min before, PCP 1.5 mg/kg s.c.
The nature of series [3]: Metabolism in pooled human liver microsomes. It is filed as in vitro ADME. The protocol:
Compounds were incubated in pooled human liver microsomes (HLMs) in the presence or absence of an NADPH-generating system. NADPH is required for the activity of cytochrome P450 (CYP) and other oxidative enzymes present in HLMs, but not for esterase activity. An additional incubation was carried out in the absence of HLM to assess compound stability. The disappearance of parent and the appearance of the corresponding acid metabolite were monitored over the time course of the incubations using LC-MS/MS.
A stock solution (20 mM) of each proprietary compound in DMSO was prepared and stored at −20° C. until needed. A working stock solution (0.2 mM) was prepared for each proprietary compound by adding an aliquot of the stock solution (10 μL) to acetonitrile (990 μL).
An aliquot of the HLM solution was removed from the −80° C. freezer and placed on ice. Tris Buffer (50 mM, pH 7.4) containing MgCl2 (hexahydrate, 5 mM) was pre-incubated in a 37° C. water bath. A set of Eppendorf microfuge tubes (1.5 mL) was appropriately labeled. To each tube was added Tris buffer with or without the NADPH generating system. An aliquot of pooled HLMs was added to all the incubations except those that were the buffer control.
Tubes were preincubated for 5 min in a shaking incubator bath (37° C., 900 rpm) and the reaction was initiated by adding an aliquot of the proprietary working solution (5 μL). The additions were timed carefully in order to coordinate the sample collections below. A small aliquot (50 μL) was removed at […] and delivered to the respective tubes containing dextrorphan (100 μL of 0.5 μg/mL solution) dissolved in methanol or acetonitrile. The samples were centrifuged at 14000 g for 15 minutes at 4° C. The supernatant was transferred to clean labeled HPLC injection vials and stored at −80° C. until analyzed. An aliquot of the supernatant (25 μL) was added to water (75 μL), mixed and injected onto the LC-MS/MS system for analysis. Results for some compounds of the invention can be found below in the table in Example 20.

A further series relates to pig liver esterase. Put plainly: Metabolism by pig liver esterase with and without human plasma proteins. The class given is in vitro ADME. The procedure: The esterase-mediated metabolism of these compounds was studied using commercially available pig liver esterase in the presence and absence of human plasma proteins. The disappearance of parent was monitored over the time course of the incubations using a LC-UV detection system.
A stock solution and working stock solution was prepared for each proprietary compound as described for the human liver microsomal incubations. Working solutions of pig liver esterase in potassium phosphate buffer (10 mM, pH 7.4) and pig liver esterase in human plasma protein were prepared by dissolving pig liver esterase (2.51 mg) in the phosphate buffer or plasma protein solutions, respectively.
A set of three Eppendorf microfuge tubes (1.5 mL) was appropriately labeled. To each tube was added 1.5 mL of phosphate buffer, pig liver esterase in buffer, or pig liver esterase in human plasma protein solution. These solutions were pre-incubated (37° C., 900 rpm) and the reactions were initiated by adding an aliquot (37.5 μL) of the working solution of proprietary compound to each tube. An aliquot (100 μL) from each tube was removed at time 0, 5, 30, 60, and 120 min and added to a tube containing acetonitrile (200 μL) to stop the reaction.
The samples were centrifuged at 14000 g for 15 minutes at 4° C. The supernatant was transferred to clean labeled HPLC injection vials and stored at −80° C. until analyzed. An aliquot of the supernatant (25 μL) was injected onto the LC-UV system for analysis.

T2 sequence (P20309 whole entry): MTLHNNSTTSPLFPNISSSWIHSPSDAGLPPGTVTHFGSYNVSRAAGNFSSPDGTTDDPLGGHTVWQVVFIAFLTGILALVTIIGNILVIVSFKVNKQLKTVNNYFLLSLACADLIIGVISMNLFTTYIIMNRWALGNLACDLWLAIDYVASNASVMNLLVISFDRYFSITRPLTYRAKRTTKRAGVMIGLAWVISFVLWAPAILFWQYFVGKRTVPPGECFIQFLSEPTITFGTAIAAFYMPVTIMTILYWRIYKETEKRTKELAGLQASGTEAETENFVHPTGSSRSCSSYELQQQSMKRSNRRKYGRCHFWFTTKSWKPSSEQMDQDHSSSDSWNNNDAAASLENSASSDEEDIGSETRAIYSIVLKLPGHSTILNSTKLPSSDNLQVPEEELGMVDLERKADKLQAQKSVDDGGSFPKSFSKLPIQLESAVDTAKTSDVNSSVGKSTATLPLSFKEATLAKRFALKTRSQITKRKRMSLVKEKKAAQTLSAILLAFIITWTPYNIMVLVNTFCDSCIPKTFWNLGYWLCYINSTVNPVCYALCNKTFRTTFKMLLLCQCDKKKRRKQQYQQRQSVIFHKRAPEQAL
T3 sequence (P34969 whole entry): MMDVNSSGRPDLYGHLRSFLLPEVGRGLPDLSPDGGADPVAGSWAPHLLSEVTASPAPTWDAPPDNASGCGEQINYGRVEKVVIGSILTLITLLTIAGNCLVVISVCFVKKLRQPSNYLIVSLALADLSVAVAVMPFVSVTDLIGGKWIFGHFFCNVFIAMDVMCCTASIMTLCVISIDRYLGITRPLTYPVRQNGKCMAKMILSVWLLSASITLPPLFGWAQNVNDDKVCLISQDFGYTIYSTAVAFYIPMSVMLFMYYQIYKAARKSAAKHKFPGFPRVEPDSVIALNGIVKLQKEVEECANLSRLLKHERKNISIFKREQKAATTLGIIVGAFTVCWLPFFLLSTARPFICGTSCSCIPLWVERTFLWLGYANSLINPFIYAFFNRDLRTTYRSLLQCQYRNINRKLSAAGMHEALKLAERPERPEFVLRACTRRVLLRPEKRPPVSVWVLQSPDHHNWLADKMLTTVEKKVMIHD

The term pKi denotes the Ki on a negative log10 scale, so that one unit is a factor of ten. Low readings indicate a large Ki, high ones a small Ki. Take `CCOC(=O)C[C@H]1CN(C2=Nc3cc(Cl)ccc3Oc3ccccc32)CCN1` [Compound K, (S,E)-ethyl 2-(4-(8-chlorodibenzo[b,f][1,4]oxazepin-11-yl)piperazin-2-yl)acetate]: in series [1] (0.03-10 mg/kg), the “locomotor activity in rat (open field)” value is on record as “did not reduce”. Besides, at human 5HT2C receptors, the “binding to 5-HT2c” value is given as “bind” and the negative logarithm of the Ki (pKi) is 7.01 to 8.00. Moreover, at human 5HT2C receptors (relative to clozapine), the “affinity for the 5-HT2c receptors, fold lower than clozapine” value was determined as 1.2 fold. For the same compound, on human M3 receptors, the “affinity to M3 receptors” value is reported as “very low affinity” and the Ki is more than 10000 nM. In addition, the Ki at human 5HT7 receptors was 631 to 1550 nM. Further, the “NMDA antagonist-induced deficits in prepulse inhibition” value in series [2] is reported as “Restore”.

As for `O=C(O)C[C@H]1CN(C2=Nc3cc(Cl)ccc3Oc3ccccc32)CCN1` [Compound Q, (S,E)-2-(4-(8-chlorodibenzo[b,f][1,4]oxazepin-11-yl)piperazin-2-yl)acetic acid], in series [1] (10 mg/kg), the “locomotor activity in rat (open field)” value is given as “did not reduce”. On human 5HT2C receptors, the “binding to 5-HT2c” value is recorded as “bind” and the negative-log Ki (pKi) was 6.01 to 7.00. Besides, at human M3 receptors, the “affinity to M3 receptors” value was “very low affinity” and the Ki was more than 10000 nM. Also, in series [2], the “NMDA antagonist-induced deficits in prepulse inhibition” value is “Restore”.

Take `CCC(C)OC(=O)C[C@H]1CN(C2=Nc3cc(Cl)ccc3Oc3ccccc32)CCN1C` (stereo partly drawn) [DY, sec-butyl 2-((S)-4-((E)-8-chlorodibenzo[b,f][1,4]oxazepin-11-yl)-1-methylpiperazin-2-yl)acetate]: the pKi at human 5HT2C receptors is 6.01 to 7.00. The Ki at human M3 receptors and at human 5HT7 receptors was more than 10000 nM in each case. For the same compound, the “HLMs Enzyme” value in series [3] (enzyme type metabolising the compound in HLMs (with/without NADPH)) was “Esterase”. In series [3] (pH 7.4, pooled human liver microsomes, disappearance of parent, read-out: HLMs t1/2), the half-life is less than 5 min. Further, the half-life at 4.9 µM was less than 5 min with pig liver esterase (pig liver esterase in potassium phosphate buffer, pH 7.4, pig liver esterase in phosphate buffer, no plasma protein) and 30 min in the series on pig liver esterase (pig, pig liver esterase in human plasma protein solution).
